# Measurements from the supplement of paper PMC10307832.
# Key:
# Experiment in all cases: relative viability (nuclei count vs DMSO), 5 days (fraction); higher = more cells survive
# CPI-613 = compound: O=C(O)CCCCC(CCSCc1ccccc1)SCc1ccccc1 [CPI-613]
# Procedure, shortened: (§1)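 Only plates meeting two conditions passed: control CV below 25% and at least one doubling. Lung cancer cell lines, kept overnight at 37 °C in 1536-well plates, were pinned with five library-drug doses (not always all listed) √10 apart on vehicle-anchored plates and grown 5 days without medium change. A one-step fix, permeabilisation and Hoechst stain preceded 4× imaging and MetaXpress nuclear counting. Viability equals treated-well nuclei divided by vehicle-well nuclei, as the median over plates.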
# JQ1 = compound: Cc1sc2c(c1C)C(c1ccc(Cl)cc1)=N[C@@H](CC(=O)OC(C)(C)C)c1nnc(C)n1-2 [JQ1]
# Procedure, shortened: as §1
# [1] = compound: Cc1cnc(-c2cnc(NCCNc3ccc(C#N)cn3)nc2-c2ccc(Cl)cc2Cl)[nH]1
# Procedure, shortened: as §1
# Cytarabine = compound: Nc1ccn([C@@H]2O[C@H](CO)[C@@H](O)[C@@H]2O)c(=O)n1 [Cytarabine]
# Procedure, shortened: as §1
# Docetaxel = compound: CC(=O)O[C@@]12CO[C@@H]1C[C@H](O)[C@@]1(C)C(=O)[C@H](O)C3=C(C)[C@@H](OC(=O)[C@H](O)[C@@H](NC(=O)OC(C)(C)C)c4ccccc4)C[C@@](O)([C@@H](OC(=O)c4ccccc4)[C@H]21)C3(C)C [Docetaxel]
# Procedure, shortened: as §1
# Pimozide = compound: O=c1[nH]c2ccccc2n1C1CCN(CCCC(c2ccc(F)cc2)c2ccc(F)cc2)CC1 [Pimozide]
# Procedure, shortened: as §1
# Tivozanib = compound: COc1cc2nccc(Oc3ccc(NC(=O)Nc4cc(C)on4)c(Cl)c3)c2cc1OC [Tivozanib]
# Procedure, shortened: as §1
Cell Line,relative viability (CPI-613; 5 µM),relative viability (CPI-613; 15.81 µM),relative viability (CPI-613; 50 µM),relative viability (CPI-613; 158.11 µM),relative viability (CPI-613; 500 µM),relative viability (JQ1; 0.04 µM),relative viability (JQ1; 0.1265 µM),relative viability (JQ1; 0.4 µM),relative viability (JQ1; 1.265 µM),relative viability (JQ1; 4 µM),relative viability ([1]; 0.08 µM),relative viability ([1]; 0.253 µM),relative viability ([1]; 0.8 µM),relative viability ([1]; 2.53 µM),relative viability (Cytarabine; 0.005 µM),relative viability (Cytarabine; 0.01581 µM),relative viability (Cytarabine; 0.05 µM),relative viability (Cytarabine; 0.1581 µM),relative viability (Cytarabine; 0.5 µM),relative viability (Docetaxel; 0.0002 µM),relative viability (Docetaxel; 0.000632 µM),relative viability (Docetaxel; 0.002 µM),relative viability (Docetaxel; 0.006325 µM),relative viability (Docetaxel; 0.02 µM),relative viability (Pimozide; 0.253 µM),relative viability (Pimozide; 0.8 µM),relative viability (Pimozide; 2.53 µM),relative viability (Pimozide; 8 µM),relative viability (Tivozanib; 0.005 µM),relative viability (Tivozanib; 0.01581 µM),relative viability (Tivozanib; 0.05 µM),relative viability (Tivozanib; 0.1581 µM),relative viability (Tivozanib; 0.5 µM),relative viability (Pimozide; 0.08 µM)
PC-3 [JPC-3],1.01,0.952,1.01,0.789,0.358,0.999,0.997,0.762,0.675,0.606,1,0.909,1.04,1.03,0.945,0.971,0.773,0.618,0.631,0.98,1.01,0.585,0.344,0.188,0.984,0.945,1.01,0.894,1.03,1.05,1.06,1.05,0.912,–
NCI-H1623,1.07,0.99,1.13,0.743,0.867,0.961,0.82,0.908,0.557,0.54,1.06,0.957,0.921,0.947,0.828,0.592,0.41,0.25,0.216,0.889,0.957,0.601,0.424,0.264,0.916,0.902,0.939,0.932,1.05,0.986,1.03,0.714,0.986,0.675
NCI-H520,1.05,0.952,1.04,0.77,0.139,0.954,1.07,0.905,0.533,0.458,1.04,1,1.03,1.07,0.94,1.04,1.13,0.741,0.657,0.853,0.973,0.489,0.277,0.169,0.978,0.903,0.96,0.972,0.906,0.922,0.884,0.684,0.859,0.993
NCI-H2126,0.98,0.991,1.05,0.563,0.592,1.01,0.928,0.858,0.697,0.648,1.03,0.927,0.952,1.04,0.887,0.9,0.716,0.714,0.618,1.02,0.886,0.624,0.369,0.227,0.948,1.02,0.966,0.986,0.968,0.961,1.04,0.713,0.98,0.978
BEN,0.988,0.843,0.96,0.799,0.811,0.809,0.848,0.594,0.44,0.387,1.05,0.991,0.933,0.984,0.892,0.794,0.617,0.473,0.335,0.951,1.01,0.593,0.291,0.198,1.07,0.975,0.925,1.04,0.922,1.05,1.02,–,0.889,0.96
NCI-H322M,0.894,0.85,0.899,0.911,0.153,0.917,1.05,0.822,0.57,0.437,0.976,0.842,0.853,1.26,0.877,0.794,0.628,0.475,0.336,0.957,0.889,0.762,0.612,0.439,0.932,1.02,0.948,0.705,0.948,0.929,0.972,0.791,0.902,–
NCI-H358,0.876,0.949,0.901,0.495,0.038,0.982,0.976,0.941,0.638,0.461,0.97,0.818,0.822,0.796,0.912,0.757,0.509,0.2,0.161,0.768,0.463,0.251,0.209,0.138,1.02,0.876,0.943,0.925,0.898,0.944,1.1,0.915,1.01,0.796
NCI-H23,0.982,0.881,0.943,0.39,0.043,0.919,0.874,0.584,0.274,0.218,0.891,0.873,0.941,0.842,0.773,0.564,0.559,0.246,0.203,0.99,0.725,0.296,0.209,0.137,1.05,0.773,0.851,0.808,0.943,0.966,0.913,0.661,0.61,0.95
NCI-H1755,0.937,0.958,0.942,0.973,0.49,0.984,0.819,1.04,0.966,0.836,1.04,0.831,1.03,1.08,1.04,0.97,0.864,0.548,0.404,0.984,0.941,0.724,0.459,0.411,0.967,0.946,0.929,0.892,0.991,0.961,1.01,1.02,0.917,0.916
NCI-H661,0.963,0.914,0.956,0.832,0.233,1.03,0.962,0.952,0.879,0.769,0.979,0.973,0.975,0.898,1.04,0.93,0.902,0.715,0.581,0.93,0.986,1,0.541,0.459,1.01,0.925,0.897,0.924,0.954,0.975,0.993,0.992,1.01,0.99
UMC-11,0.945,0.924,0.911,0.474,0.133,0.926,0.742,0.43,0.29,0.26,0.943,0.787,0.929,1.02,0.75,0.554,0.551,0.316,0.264,0.912,0.944,0.456,0.279,0.187,0.983,0.961,0.976,1.07,0.944,0.954,0.965,–,0.927,1.01
HOP-62,0.978,0.936,1,0.833,0.643,0.999,0.808,0.662,0.29,0.153,0.989,0.826,1.02,0.942,0.848,0.636,0.431,0.159,0.104,0.969,0.759,0.543,0.289,0.184,0.947,0.646,0.994,0.981,1.01,1.03,1.09,0.936,0.978,1.04
LCLC-97TM1,0.964,0.993,0.985,0.97,0.629,1,0.759,0.803,0.491,0.194,0.977,0.846,0.907,0.908,0.99,0.787,0.296,0.143,0.129,0.88,0.617,0.3,0.104,0.0757,0.906,0.916,0.953,0.653,0.953,1.04,1.05,0.927,0.919,0.984
NCI-H1299,1,0.984,1,0.992,0.973,0.974,0.851,0.909,0.379,0.308,0.968,1.01,1,0.969,1.01,1.04,1.01,1.06,1.02,0.998,0.975,0.868,0.502,0.37,0.951,0.977,0.995,0.988,1.01,1.03,1.03,1.02,0.952,1.02
NCI-H522,0.864,0.944,1.09,0.921,0.53,0.957,0.915,0.793,0.457,0.425,1.07,1.01,1.02,0.873,0.868,0.878,0.762,0.566,0.53,0.927,0.727,0.689,0.579,0.389,0.885,0.868,0.893,0.906,0.961,1.21,0.925,0.802,0.787,0.93
H3255,0.94,0.803,0.984,0.92,0.888,0.874,0.665,0.912,0.456,0.336,1.02,0.887,0.994,0.999,0.96,0.922,0.763,0.695,0.591,0.899,0.978,0.657,0.336,0.3,0.913,0.907,0.907,0.948,0.922,0.985,0.882,0.828,0.926,–
NCI-H1437,0.96,0.898,0.948,0.345,0.0955,0.92,0.792,0.762,0.484,0.415,1.02,0.928,0.98,1,0.79,0.64,0.494,0.243,0.206,0.914,0.765,0.457,0.281,0.158,0.969,0.959,0.904,0.723,0.968,0.971,0.988,0.982,0.88,0.991
NCI-H1993,0.84,0.932,0.967,0.717,0.439,0.919,0.994,0.922,0.663,0.709,0.951,0.789,1.03,1.07,0.941,0.916,0.764,0.655,0.519,0.778,0.964,0.806,0.597,0.5,0.824,0.816,0.969,0.912,0.945,0.867,1.13,0.589,0.762,0.822
